Measurements from ChEMBL document CHEMBL5500353, “Discovery of novel amide derivatives as potent quorum sensing inhibitors of Pseudomonas aeruginosa” (Eur J Med Chem, 2024).
Active and inactive are the calls of the source. The calls are words filed in the database; no cut-off is given here.

How the values were obtained:
[1] = Inhibition of quorum sensing system in Pseudomonas aeruginosa PAO1-lasB-gfp assessed as inhibition of lasB expression at 50 ug/ml incubated for 8 hrs under shaking condition by microplate reader based analysis relative to control; details: dose 50.0 µg/ml
[2] = Inhibition of quorum sensing system in Pseudomonas aeruginosa PAO1-rhlA-gfp assessed as inhibition of rhlA expression at 50 ug/ml incubated for 8 hrs under shaking condition by microplate reader based analysis relative to control; details: dose 50.0 µg/ml
[3] = Inhibition of quorum sensing system in Pseudomonas aeruginosa PAO1-pqsA-gfp assessed as inhibition of pqsA expression at 50 ug/ml incubated for 8 hrs under shaking condition by microplate reader based analysis relative to control; details: dose 50.0 µg/ml
Pseudomonas aeruginosa [4] = assay: Antibacterial activity against Pseudomonas aeruginosa PAO1 at 80 ug/ml incubated for 48 hrs by absorbance based analysis; format: functional, organism-based; details: dose 80.0 µg/ml
[5] = Cytotoxicity against human HepG2 cells assessed as inhibition of cell growth at 100 ug/ml measured after 48 hrs by CCK-8 method relative to control; format: toxicity, cell-based; details: at 100 µg/mL
Pseudomonas aeruginosa [6] = assay: Antibacterial activity against Pseudomonas aeruginosa PAO1 at 80 to 160 ug/ml incubated for 48 hrs by absorbance based analysis; format: functional, organism-based; details: dose 80-160 µg/ml
Pseudomonas aeruginosa [7] = assay: Anti-virulence activity in Pseudomonas aeruginosa PAO1 assessed as reduction in elastase production at 160 ug/ml by congo red dye based microplate reader analysis; format: functional, organism-based; details: dose 160.0 µg/ml
Pseudomonas aeruginosa [8] = assay: Anti-virulence activity in Pseudomonas aeruginosa PAO1 assessed as reduction in rhamnolipid production at 160 ug/ml incubated for 48 hrs by absorbance based analysis; format: functional, organism-based; details: dose 160.0 µg/ml
Pseudomonas aeruginosa [9] = assay: Anti-virulence activity in Pseudomonas aeruginosa PAO1 assessed as reduction in pyocyanin production at 160 ug/ml by absorbance based analysis; format: functional, organism-based; details: dose 160.0 µg/ml
Pseudomonas aeruginosa [10] = assay: Anti-virulence activity in Pseudomonas aeruginosa PAO1 assessed as reduction in pyoverdine production at 160 ug/ml by absorbance based analysis; format: functional, organism-based; details: dose 160.0 µg/ml
Pseudomonas aeruginosa [11] = assay: Antibiofilm activity against Pseudomonas aeruginosa PAO1 assessed as reduction in biofilm production at 160 ug/ml incubated for 72 hrs by crystal violet staining based analysis; format: functional, organism-based; details: dose 160.0 µg/ml
Pseudomonas aeruginosa [12] = assay: Anti-motility activity against Pseudomonas aeruginosa PAO1 assessed as reduction in swarming at 160 ug/ml incubated for 12 hrs; format: functional, organism-based; details: dose 160.0 µg/ml
[13] = Cytotoxicity against human HepG2 cells assessed as inhibition of cell growth at 10 ug/ml measured after 48 hrs by CCK-8 method relative to control; format: toxicity, cell-based; details: at 10 µg/mL
Pseudomonas aeruginosa [14] = assay: Antibacterial activity against Pseudomonas aeruginosa infected in Galleria mellonella larvae infection model assessed as increase in survival rate at 160 ug/ml preincubated with measured after 72 hrs; format: functional, organism-based; details: dose 160.0 µg/ml
Pseudomonas aeruginosa [15] = assay: Downregulation of lasR mRNA expression in Pseudomonas aeruginosa PAO1 at 160 ug/ml incubated for 6 hrs by RT-qPCR analysis; format: functional; details: dose 160.0 µg/ml
Pseudomonas aeruginosa [16] = assay: Downregulation of lasA mRNA expression in Pseudomonas aeruginosa PAO1 at 160 ug/ml incubated for 6 hrs by RT-qPCR analysis; format: functional; details: dose 160.0 µg/ml
Pseudomonas aeruginosa [17] = assay: Downregulation of lasB mRNA expression in Pseudomonas aeruginosa PAO1 at 160 ug/ml incubated for 6 hrs by RT-qPCR analysis; format: functional; details: dose 160.0 µg/ml
Pseudomonas aeruginosa [18] = assay: Downregulation of lasl-mRNA expression in Pseudomonas aeruginosa PAO1 at 160 ug/ml incubated for 6 hrs by RT-qPCR analysis; format: functional; details: dose 160.0 µg/ml
Pseudomonas aeruginosa [19] = assay: Downregulation of pqsA mRNA expression in Pseudomonas aeruginosa PAO1 at 160 ug/ml incubated for 6 hrs by RT-qPCR analysis; format: functional; details: dose 160.0 µg/ml
Pseudomonas aeruginosa [20] = assay: Downregulation of pqsR mRNA expression in Pseudomonas aeruginosa PAO1 at 160 ug/ml incubated for 6 hrs by RT-qPCR analysis; format: functional; details: dose 160.0 µg/ml
Pseudomonas aeruginosa [21] = assay: Downregulation of rhll-mRNA expression in Pseudomonas aeruginosa PAO1 at 160 ug/ml incubated for 6 hrs by RT-qPCR analysis; format: functional; details: dose 160.0 µg/ml
Pseudomonas aeruginosa [22] = assay: Downregulation of rhlR mRNA expression in Pseudomonas aeruginosa PAO1 at 160 ug/ml incubated for 6 hrs by RT-qPCR analysis; format: functional; details: dose 160.0 µg/ml
Pseudomonas aeruginosa [23] = assay: Downregulation of phzM mRNA expression in Pseudomonas aeruginosa PAO1 at 160 ug/ml incubated for 6 hrs by RT-qPCR analysis; format: functional; details: dose 160.0 µg/ml
Pseudomonas aeruginosa [24] = assay: Downregulation of chiC mRNA expression in Pseudomonas aeruginosa PAO1 at 160 ug/ml incubated for 6 hrs by RT-qPCR analysis; format: functional; details: dose 160.0 µg/ml
[25] = molecular target: T1, Transcriptional activator protein LasR (Pseudomonas aeruginosa (strain ATCC 15692 / PAO1 / 1C / PRS 101 / LMG12228), UniProt P25084); assay: Binding affinity to Pseudomonas aeruginosa PAO1 LasR assessed as dissociation constant by SPR analysis
T1 sequence (P25084 whole entry): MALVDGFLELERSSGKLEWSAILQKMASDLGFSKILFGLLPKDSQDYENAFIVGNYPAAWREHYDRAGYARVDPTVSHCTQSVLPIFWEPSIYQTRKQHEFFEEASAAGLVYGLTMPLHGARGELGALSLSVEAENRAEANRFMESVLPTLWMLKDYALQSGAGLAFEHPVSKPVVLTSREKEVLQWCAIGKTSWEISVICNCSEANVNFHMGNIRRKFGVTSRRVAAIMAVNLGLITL

[26] = molecular target: T2, Transcriptional regulator MvfR (Pseudomonas aeruginosa PA14, UniProt A0A072ZLE6); assay: Binding affinity to Pseudomonas aeruginosa PAO1 PqsR expressed in Escherichia coli BL21 assessed as dissociation constant by SPR analysis
T2 sequence (A0A072ZLE6 whole entry): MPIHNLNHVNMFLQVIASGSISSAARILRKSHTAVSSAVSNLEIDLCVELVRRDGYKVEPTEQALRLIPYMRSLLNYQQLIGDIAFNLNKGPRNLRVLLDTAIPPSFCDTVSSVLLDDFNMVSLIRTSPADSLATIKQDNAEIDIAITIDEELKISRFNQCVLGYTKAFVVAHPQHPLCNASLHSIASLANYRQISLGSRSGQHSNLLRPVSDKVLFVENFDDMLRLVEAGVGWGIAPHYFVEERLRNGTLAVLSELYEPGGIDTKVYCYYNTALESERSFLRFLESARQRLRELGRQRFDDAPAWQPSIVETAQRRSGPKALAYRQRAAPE

C=C(C)CNC(=O)CCCC
inhibition [1]: 72.2% | inhibition [2]: 76.9% | inhibition [3]: 26%

C=CCSSCC=C [DIALLYLDISULFIDE]
inhibition [1]: 36.1% | inhibition [2]: 38% | inhibition [3]: 34.6% | Activity (Pseudomonas aeruginosa [4]): inactive | inhibition at 48 h, 100 ug/ml [5]: 18.1%

C=C(C)CNC(=O)/C=C/CCC
inhibition [1]: 77.1% | inhibition [2]: 85% | inhibition [3]: 40% | Activity (Pseudomonas aeruginosa [6]): inactive | Activity (Pseudomonas aeruginosa [7]): Active | Activity (Pseudomonas aeruginosa [8]): Active | Activity (Pseudomonas aeruginosa [9]): Active | Activity (Pseudomonas aeruginosa [10]): Active | Activity (Pseudomonas aeruginosa [11]): Active | Activity (Pseudomonas aeruginosa [12]): Active | inhibition at 48 h, 100 ug/ml [5]: 18.9% | inhibition at 48 h, 10 ug/ml [13]: 9.91% | Activity (Pseudomonas aeruginosa [14]): Active | Activity (Pseudomonas aeruginosa [15]): inactive | Activity (Pseudomonas aeruginosa [16]): Active | Activity (Pseudomonas aeruginosa [17]): Active | Activity (Pseudomonas aeruginosa [18]): Active | Activity (Pseudomonas aeruginosa [19]): Active | Activity (Pseudomonas aeruginosa [20]): inactive | Activity (Pseudomonas aeruginosa [21]): Active | Activity (Pseudomonas aeruginosa [22]): Active | Activity (Pseudomonas aeruginosa [23]): Active | Activity (Pseudomonas aeruginosa [24]): Active

C/C=C/C(=O)NCC(C)C
inhibition [1]: 63.7% | inhibition [2]: 72.3% | inhibition [3]: 27.8%

C=C(C)CNC(C)=O
inhibition [1]: 10.5% | inhibition [2]: 10.2% | inhibition [3]: 59.1%

CC(=O)NCC(C)(C)O
inhibition [1]: 1.11% | inhibition [2]: 13.8%

CCCCCC(=O)NCC(C)C
inhibition [1]: 70% | inhibition [2]: 72.4% | inhibition [3]: 13.6%

C=CC(=O)NCC(=C)C
inhibition [1]: 54.7% | inhibition [2]: 63.9% | inhibition [3]: 2.45%

CCCCCCC(=O)NCC(C)(C)O
inhibition [1]: 13.1% | inhibition [2]: 18.1%

CCC(=O)NCC(C)(C)O
inhibition [1]: 7.26% | inhibition [2]: 28.3%

CCCCC(=O)NCC(C)(C)O
inhibition [1]: 40% | inhibition [2]: 55.8% | inhibition [3]: 1.47%

C/C=C/C=C/C(=O)NCC(C)C
inhibition [1]: 82.2% | inhibition [2]: 84.1% | inhibition [3]: 65.5% | Activity (Pseudomonas aeruginosa [6]): inactive | Activity (Pseudomonas aeruginosa [7]): Active | Activity (Pseudomonas aeruginosa [8]): Active | Activity (Pseudomonas aeruginosa [9]): Active | Activity (Pseudomonas aeruginosa [10]): Active | Activity (Pseudomonas aeruginosa [11]): Active | Activity (Pseudomonas aeruginosa [12]): Active | inhibition at 48 h, 100 ug/ml [5]: 30.1% | inhibition at 48 h, 10 ug/ml [13]: -2.16% | Activity (Pseudomonas aeruginosa [14]): Active | Activity (Pseudomonas aeruginosa [15]): inactive | Activity (Pseudomonas aeruginosa [16]): Active | Activity (Pseudomonas aeruginosa [17]): Active | Activity (Pseudomonas aeruginosa [18]): Active | Activity (Pseudomonas aeruginosa [19]): Active | Activity (Pseudomonas aeruginosa [20]): inactive | Activity (Pseudomonas aeruginosa [21]): Active | Activity (Pseudomonas aeruginosa [22]): Active | Activity (Pseudomonas aeruginosa [23]): Active | Kd [25]: 1230 µM | Kd [26]: 8.36 µM

CCC(=O)NCC(C)C
inhibition [1]: 54.6% | inhibition [2]: 71% | inhibition [3]: 27.8%

C=C(C)CNC(=O)CCCCC
inhibition [1]: 72.7% | inhibition [2]: 79.7% | inhibition [3]: 36.1%

C/C=C/C=C/C(=O)NCC(C)(C)O
inhibition [1]: 26.3% | inhibition [2]: 32.4%

CC/C=C/C(=O)NCC(C)(C)O
inhibition [1]: 53.1% | inhibition [2]: 58.1% | inhibition [3]: -8.67%

C/C=C/C(=O)NCC(C)(C)O
inhibition [1]: 29.9% | inhibition [2]: 41.9%

CCCCC(=O)NCC(C)C
inhibition [1]: 77.2% | inhibition [2]: 65.8% | inhibition [3]: 30.2%

CCCC(=O)NCC(C)C
inhibition [1]: 65.7% | inhibition [2]: 65.4% | inhibition [3]: 29.8%

CCCC(=O)NCC(C)(C)O
inhibition [1]: 37.4% | inhibition [2]: 43.1% | inhibition [3]: -6.15%

C=CC(=O)NCC(C)(C)O
inhibition [1]: 6.82% | inhibition [2]: 29.7% | inhibition [3]: 0.28%

C=C(C)CNC(=O)/C=C/C=C/C
inhibition [1]: 38.9% | inhibition [2]: 56.8% | inhibition [3]: 11.8%

CC(=O)NCC(C)C
inhibition [1]: 13.8% | inhibition [2]: 18.9% | inhibition [3]: 11%

CCCCCCC(=O)NCC(C)C
inhibition [1]: 2.28% | inhibition [2]: 8.21% | inhibition [3]: 5.99%

CCCCCC(=O)NCC(C)(C)O
inhibition [1]: 32.4% | inhibition [2]: 54.9%

CCC/C=C/C(=O)NCC(C)(C)O
inhibition [1]: 34.5% | inhibition [2]: 50.1%

C=CC(=O)NCC(C)C
inhibition [1]: 55.1% | inhibition [2]: 68.6% | inhibition [3]: 12.6%

CCC/C=C/C(=O)NCC(C)C
inhibition [1]: 64.1% | inhibition [2]: 80.5% | inhibition [3]: 26.5% | Activity (Pseudomonas aeruginosa [24]): Active

C=C(C)CNC(=O)/C=C/C
inhibition [1]: 67.5% | inhibition [2]: 80% | inhibition [3]: 38%

CC/C=C/C(=O)NCC(C)C
inhibition [1]: 71.5% | inhibition [2]: 72.7% | inhibition [3]: 26.2%

C=C(C)CNC(=O)CCC
inhibition [1]: 61.5% | inhibition [2]: 64.5% | inhibition [3]: 38.1%

C=C(C)CNC(=O)CCCCCC
inhibition [1]: 61.6% | inhibition [2]: 68.4% | inhibition [3]: 42.5%
